This is an account of results in patent publication US8933103B2, “Pyridone derivatives” (Daiichi Sankyo Company, Limited, priority 2012, dated 2015).

This test addresses T1, AXL (fusion protein of amino acids 464-885 of the intracellular domain of human AXL with glutathione transferase) (Homo sapiens, UniProt P30530).
T1 sequence (P30530 464-885 isoform P30530-2): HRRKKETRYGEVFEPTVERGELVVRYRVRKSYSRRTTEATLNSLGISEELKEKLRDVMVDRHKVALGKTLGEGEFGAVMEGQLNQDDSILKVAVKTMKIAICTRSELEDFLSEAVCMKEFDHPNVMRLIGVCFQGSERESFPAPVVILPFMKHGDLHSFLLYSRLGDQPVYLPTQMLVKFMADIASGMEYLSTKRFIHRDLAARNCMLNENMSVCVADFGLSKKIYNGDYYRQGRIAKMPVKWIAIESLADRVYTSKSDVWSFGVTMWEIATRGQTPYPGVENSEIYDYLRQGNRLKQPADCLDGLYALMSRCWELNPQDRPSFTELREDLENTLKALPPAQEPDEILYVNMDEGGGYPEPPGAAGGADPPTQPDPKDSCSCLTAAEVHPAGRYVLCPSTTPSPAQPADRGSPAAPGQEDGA
Nature of the test: Cell-Free Axl Kinase Inhibitory Activity.
Procedure: Next, the test compound was diluted with DMSO, and 1 μl of this diluted solution was added to each well.
Five microliters of this solution were added to each well to initiate a kinase reaction. The plate was incubated at 28° C. for 1.5 hours, and 40 μl of a termination buffer (100 mM HEPES (pH 7.4), 0.015% Brij-35, 40 mM EDTA, 0.1% Coating Reagent 3) was added to each well to terminate the reaction.
The substrate peptide and the phosphorylated peptide in the reaction solution were separated and quantified by EZ Reader II (Caliper Life Sciences).
IC50 was determined from inhibition data for 12 test compound concentrations by nonlinear regression (four-parameter logistic regression) using the following formula.
One may read the IC50 as the concentration at which inhibition is half-maximal. The molecule `COc1ccc(-c2cnc(N)c(-c3ccc(NC(=O)c4cn(Cc5ccc(F)cc5)cc(-c5nnc(C)o5)c4=O)cc3)c2)cc1OC` [Example 28, N-{4-[2-Amino-5-(3,4-dimethoxyphenyl)pyridin-3-yl]phenyl}-1-(4-fluorobenzyl)-5-(5-methyl-1,3,4-oxadiazol-2-yl)-4-oxo-1,4-dihydropyridine-3-carboxamide] had a half-inhibitory concentration (IC50) of 0.1 to 1 nM. For `COCCn1cc(C(=O)Nc2ccc(-c3cc(-c4cnn(C[C@H]5COCCO5)c4)cnc3N)cc2)c(=O)c(-c2ccc(F)cc2)c1` [Example 66, N-[4-(2-Amino-5-{1-[(2S)-1,4-dioxan-2-ylmethyl]-1H-pyrazol-4-yl}pyridin-3-yl)phenyl]-5-(4-fluorophenyl)-1-(2-methoxyethyl)-4-oxo-1,4-dihydropyridine-3-carboxamide] the value was 1 to 10 nM; for `Cn1cc(-c2cnc(N)c(-c3ccc(NC(=O)c4cn(CC(F)(F)F)cc(-c5ccccc5)c4=O)cc3)c2)cn1` [Example 54, N-{4-[2-Amino-5-(1-methyl-1H-pyrazol-4-yl)pyridin-3-yl]phenyl}-4-oxo-5-phenyl-1-(2,2,2-trifluoroethyl)-1,4-dihydropyridine-3-carboxamide], 1 to 10 nM. To `COc1ccc(-c2cnc(N)c(-c3ccc(NC(=O)c4cn(CC(F)(F)F)cc(-c5ccccc5)c4=O)cc3)c2)cc1OC` [Example 20, N-{4-[2-Amino-5-(3,4-dimethoxyphenyl)pyridin-3-yl]phenyl}-4-oxo-5-phenyl-1-(2,2,2-trifluoroethyl)-1,4-dihydropyridine-3-carboxamide] belongs 1 to 10 nM. The molecule `COCCn1cc(C(=O)Nc2ccc(-c3cc(-c4ccc(OC)c(OC)c4)cnc3N)cc2)c(=O)c(-c2ccc(F)cc2)c1` [Example 5, N-{4-[2-Amino-5-(3,4-dimethoxyphenyl)pyridin-3-yl]phenyl}-5-(4-fluorophenyl)-1-(2-methoxyethyl)-4-oxo-1,4-dihydropyridine-3-carboxamide] gave a 50% inhibitory concentration (IC50) of 0.1 to 1 nM. For `COCCOc1ccc(-c2cnc(N)c(-c3ccc(NC(=O)c4cn(CC(F)(F)F)cc(-c5ccc(F)cc5)c4=O)cc3)c2)cc1OC` [Example 38, N-(4-{2-Amino-5-[3-methoxy-4-(2-methoxyethoxy)phenyl]pyridin-3-yl}phenyl)-5-(4-fluorophenyl)-4-oxo-1-(2,2,2-trifluoroethyl)-1,4-dihydropyridine-3-carboxamide], the IC50 fell in the range of 0.1 to 1 nM.

`COc1ccc(-c2cnc(N)c(-c3ccc(NC(=O)c4cn(CC(F)(F)F)cc(-c5ccc(C)cc5)c4=O)cc3)c2)cc1OC` [Example 24, N-{4-[2-Amino-5-(3,4-dimethoxyphenyl)pyridin-3-yl]phenyl}-5-(4-methylphenyl)-4-oxo-1-(2,2,2-trifluoroethyl)-1,4-dihydropyridine-3-carboxamide]: the half-inhibitory concentration (IC50) fell in the range of 0.1 to 1 nM. Molecule `COc1cc(-c2cnc(N)c(-c3ccc(NC(=O)c4cn(CCF)cc(-c5ccccc5)c4=O)cc3)c2)ccc1OC[C@H]1COCCO1` [Example 44, N-[4-(2-Amino-5-{4-[(2R)-1,4-dioxan-2-ylmethoxy]-3-methoxyphenyl}pyridin-3-yl)phenyl]-1-(2-fluoroethyl)-4-oxo-5-phenyl-1,4-dihydropyridine-3-carboxamide] yielded an IC50 of 1 to 10 nM.

Consider `COc1ccc(-c2cnc(N)c(-c3ccc(NC(=O)c4cn(Cc5ccncc5)cc(-c5ccc(F)cc5)c4=O)cc3)c2)cc1OC` [Example 13, N-{4-[2-Amino-5-(3,4-dimethoxyphenyl)pyridin-3-yl]phenyl}-5-(4-fluorophenyl)-4-oxo-1-(pyridin-4-ylmethyl)-1,4-dihydropyridine-3-carboxamide], for which the half-maximal inhibitory concentration (IC50) is 0.1 to 1 nM. `COc1cc(-c2cnc(N)c(-c3ccc(NC(=O)c4cn(Cc5ccccc5)cc(-c5ccc(F)cc5)c4=O)cc3)c2)ccc1OC[C@H]1COCCO1` [Example 41, N-[4-(2-Amino-5-{4-[(2R)-1,4-dioxan-2-ylmethoxy]-3-methoxyphenyl}pyridin-3-yl)phenyl]-1-benzyl-5-(4-fluorophenyl)-4-oxo-1,4-dihydropyridine-3-carboxamide]: the concentration for half-maximal inhibition (IC50) is 1 to 10 nM. On to `CCn1cc(C(=O)Nc2ccc(-c3cc(-c4cnn(C)c4)cnc3N)cc2)c(=O)c(-c2ccccc2)c1` [Example 52, N-{4-[2-Amino-5-(1-methyl-1H-pyrazol-4-yl)pyridin-3-yl]phenyl}-1-ethyl-4-oxo-5-phenyl-1,4-dihydropyridine-3-carboxamide], for which the 50% inhibitory concentration (IC50) was 1 to 10 nM.

As to `COc1cc(-c2cnc(N)c(-c3ccc(NC(=O)c4cn(CC(F)(F)F)cc(-c5ccc(F)cc5)c4=O)cc3)c2)ccc1OCCN1CCCC1` [Example 39, N-[4-(2-Amino-5-{3-methoxy-4-[2-(pyrrolidin-1-yl)ethoxy]phenyl}pyridin-3-yl)phenyl]-5-(4-fluorophenyl)-4-oxo-1-(2,2,2-trifluoroethyl)-1,4-dihydropyridine-3-carboxamide], the concentration for half-maximal inhibition (IC50) fell in the range of 0.1 to 1 nM. For `COc1ccc(-c2cnc(N)c(-c3ccc(NC(=O)c4cn(Cc5ccc(F)cc5)cc(C(=O)N5C[C@@H](C)O[C@@H](C)C5)c4=O)cc3)c2)cc1OC` [Example 27, N-{4-[2-Amino-5-(3,4-dimethoxyphenyl)pyridin-3-yl]phenyl}-5-{[(2R,6S)-2,6-dimethylmorpholin-4-yl]carbonyl}-1-(4-fluorobenzyl)-4-oxo-1,4-dihydropyridine-3-carboxamide] the value was 0.1 to 1 nM.

For `COc1cc(-c2cnc(N)c(-c3ccc(NC(=O)c4cn(CCF)cc(-c5ccc(F)cc5)c4=O)cc3)c2)ccc1OC[C@H]1COCCO1` [Example 43, N-[4-(2-Amino-5-{4-[(2R)-1,4-dioxan-2-ylmethoxy]-3-methoxyphenyl}pyridin-3-yl)phenyl]-1-(2-fluoroethyl)-5-(4-fluorophenyl)-4-oxo-1,4-dihydropyridine-3-carboxamide], the concentration for half-maximal inhibition (IC50) lay within 1 to 10 nM.

The molecule `COc1ccc(-c2cnc(N)c(-c3ccc(NC(=O)c4cn(CC(F)(F)F)cc(-c5ccc(F)cc5)c4=O)cc3F)c2)cc1OC` [Example 29, N-{4-[2-Amino-5-(3,4-dimethoxyphenyl)pyridin-3-yl]-3-fluorophenyl}-5-(4-fluorophenyl)-4-oxo-1-(2,2,2-trifluoroethyl)-1,4-dihydropyridine-3-carboxamide] returned an IC50 of 0.1 to 1 nM. `Cn1cc(-c2cnc(N)c(-c3ccc(NC(=O)c4cn(CC(F)(F)F)cc(-c5ccc(F)cc5)c4=O)cc3)c2)cn1` [Example 50, N-{4-[2-Amino-5-(1-methyl-1H-pyrazol-4-yl)pyridin-3-yl]phenyl}-5-(4-fluorophenyl)-4-oxo-1-(2,2,2-trifluoroethyl)-1,4-dihydropyridine-3-carboxamide] gave an IC50 of 0.1 to 1 nM. To `COc1ccc(-n2cc(-c3ccc(F)cc3)c(=O)c(C(=O)Nc3ccc(-c4cc(-c5cnn(C)c5)cnc4N)cc3)n2)cc1` [Example 61, N-{4-[2-Amino-5-(1-methyl-1H-pyrazol-4-yl)pyridin-3-yl]phenyl}-5-(4-fluorophenyl)-1-(4-methoxyphenyl)-4-oxo-1,4-dihydropyridazine-3-carboxamide] belongs 1 to 10 nM; to `Nc1ncc(-c2cnn(C[C@H]3COCCO3)c2)cc1-c1ccc(NC(=O)c2cn(Cc3ccc(F)cc3)cc(C(=O)N3CCCC3)c2=O)cc1` [Example 71, N-[4-(2-Amino-5-{1-[(2S)-1,4-dioxan-2-ylmethyl]-1H-pyrazol-4-yl}pyridin-3-yl)phenyl]-1-(4-fluorobenzyl)-4-oxo-5-(pyrrolidin-1-ylcarbonyl)-1,4-dihydropyridine-3-carboxamide], 0.1 to 1 nM; to `CCn1cc(C(=O)Nc2ccc(-c3cc(-c4ccc(OC[C@H]5COCCO5)c(OC)c4)cnc3N)cc2)c(=O)c(-c2ccc(F)cc2)c1` [Example 46, N-[4-(2-Amino-5-{4-[(2R)-1,4-dioxan-2-ylmethoxy]-3-methoxyphenyl}pyridin-3-yl)phenyl]-1-ethyl-5-(4-fluorophenyl)-4-oxo-1,4-dihydropyridine-3-carboxamide], 1 to 10 nM. To `COc1ccc(-c2cnc(N)c(-c3ccc(NC(=O)c4cn(CC(F)(F)F)cc(-c5ccccc5F)c4=O)cc3)c2)cc1OC` [Example 21, N-{4-[2-Amino-5-(3,4-dimethoxyphenyl)pyridin-3-yl]phenyl}-5-(2-fluorophenyl)-4-oxo-1-(2,2,2-trifluoroethyl)-1,4-dihydropyridine-3-carboxamide] belongs 1 to 10 nM.
